The molecules below were run on vesicular stomatitis virus particles (VSV) pseudotyped with EboV Zaire GP (assay: microbe, parasite or virus in culture). Details: not given.
Format: cell-based

Row | Compound | IC50 [nM]
1 | Nc1ccc(Cl)cc1CN1CCN(C(=O)CNC(=O)C2CC23CCC3)CC1 (stereo not drawn) [Compound 1409, N-(2-(4-(2-Amino-5-chlorobenzyl)piperazin-1-yl)-2-oxoethyl)spiro[2.3]hexane-1-carboxamide] | 2900

Same assay, conditions: Vesicular stomatitis virus

Row | Compound | IC50 [nM]
2 | O=C(CC1CCC(F)(F)CC1)NCC(=O)N1CCN(Cc2cc(Cl)c(F)cc2F)CC1 [Compound 1368, N-(2-(4-(5-chloro-2,4-difluorobenzyl)piperazin-1-yl)-2-oxoethyl)-2-(4,4-difluorocyclohexyl)acetamide] | > 2000
3 | O=C(CC1CCC(F)(F)CC1)NCC(=O)N1CCN(Cc2cccc3ncccc23)CC1 [Compound 1428, 2-(4,4-Difluorocyclohexyl)-N-(2-oxo-2-(4-(quinolin-5-ylmethyl)piperazin-1-yl)ethyl)acetamide] | > 5000
4 | COC(=O)c1ccc(COc2ccc(F)cc2CN2CCN(C(=O)CNC(=O)CC3(C)CCCCC3)CC2)cc1 [Compound 1336, Methyl 4-((4-fluoro-2-((4-((2-(1-methylcyclohexyl)acetyl)glycyl)piperazin-1-yl)methyl)phenoxy)methyl)benzoate] | 51
5 | O=C(CC12CC3CC(C1)C(C3)C2)NCC(=O)N1CCN(Cc2cc(Cl)cc(OC(F)(F)F)c2)CC1 [Compound 1330] | 1510
6 | [2H]C([2H])(c1cc(Cl)ccc1NCc1ccc(C(=O)OC)nc1)N1CCN(C(=O)CNC(=O)C2CC23CCC(F)(F)CC3)CC1 (stereo not drawn) [Compound 1549, 5-{[4-Chloro-2-(4-{2-[(6,6-difluoro-spiro[2.5]octane-1-carbonyl)-amino]-acetyl}-piperazin-1-yl-di-deutero-methyl)-phenylamino]-methyl}-pyridine-2-carboxylic acid methyl ester] | 50
7 | O=C(NCC(=O)N1CCN(Cc2cccc3cccnc23)CC1)C1CC12CCC(F)(F)CC2 (stereo not drawn) [Compound 1420, 6,6-Difluoro-N-(2-oxo-2-(4-(quinolin-8-ylmethyl)piperazin-1-yl)ethyl)spiro[2.5]octane-1-carboxamide] | 490
8 | COC(=O)COc1ccc(Cl)cc1CN1CCN(C(=O)CNC(=O)CC23CC4CC(CC(C4)C2)C3)CC1 [Compound 1302, Methyl 2-(2-((4-((2-((1R,3R,5S)-adamantan-1-yl)acetyl)glycyl)piperazin-1-yl)methyl)-4-chlorophenoxy)acetate] | > 2000
9 | COC(=O)c1ccc(COc2ccccc2CN2CCN(C(=O)CNC(=O)C3(C)CCC(F)(F)CC3)CC2)cc1 [Compound 1328, Methyl 4-((2-((4-((4,4-difluoro-1-methylcyclohexane-1-carbonyl)glycyl)piperazin-1-yl)methyl)phenoxy)methyl)benzoate] | 250
10 | N#Cc1cc(Br)cc(CN2CCN(C(=O)CNC(=O)CC34CC5CC(CC(C5)C3)C4)CC2)c1 [Compound 1348, 2-((1R,3R,5S)-Adamantan-1-yl)-N-(2-(4-(3-bromo-5-cyanobenzyl)piperazin-1-yl)-2-oxoethyl)acetamide] | 1300
11 | O=C(CC12CC3CC(CC(C3)C1)C2)NCC(=O)N1CCN(Cc2cc(F)cc(F)c2O)CC1 [Compound 1325, 2-((1R,3R,5S)-Adamantan-1-yl)-N-(2-(4-(3,5-difluoro-2-hydroxybenzyl)piperazin-1-yl)-2-oxoethyl)acetamide] | 1000
12 | O=C(CC1CCC(F)(F)CC1)NCC(=O)N1CCN(Cc2cc(Cl)ccc2Cl)CC1 [Compound 1366, N-(2-(4-(2,5-Dichlorobenzyl)piperazin-1-yl)-2-oxoethyl)-2-(4,4-difluorocyclohexyl)acetamide] | > 2000
13 | O=C(CC1CCC(F)(F)CC1)NCC(=O)N1CCN(Cc2cc(Cl)cc(F)c2O)CC1 [Compound 1402, N-(2-(4-(5-Chloro-3-fluoro-2-hydroxybenzyl)piperazin-1-yl)-2-oxoethyl)-2-(4,4-difluorocyclohexyl)acetamide] | 2900
14 | Nc1ccc(Cl)cc1CN1CCN(C(=O)CNC(=O)C2C3CC(F)(F)CC32)CC1 [Compound 1386, (1R,5S,6r)-N-(2-(4-(2-Amino-5-chlorobenzyl)piperazin-1-yl)-2-oxoethyl)-3,3-difluorobicyclo[3.1.0]hexane-6-carboxamide] | 4400
15 | CS(=O)(=O)c1ccc(Oc2cc(Cl)cc(CN3CCN(C(=O)CNC(=O)CC4CCC(F)(F)CC4)CC3)c2)cc1 [Compound 1462] | > 1000
16 | O=C(CNC(=O)C12CC3CC(C1)CC(c1ccc(O)c([N+](=O)[O-])c1)(C3)C2)N1CCN(Cc2ccccc2OCc2ccc(Br)cc2)CC1 [Compound 1805, (1s,3r,5R,7S)—N-(2-(4-(2-((4-bromobenzyl)oxy)benzyl)piperazin-1-yl)-2-oxoethyl)-3-(4-hydroxy-3-nitrophenyl)adamantane-1-carboxamide] | 600
17 | O=C(CC1CCC(F)(F)CC1)NCC(=O)N1CCN(Cc2cc(Cl)cc3cn[nH]c23)CC1 [Compound 1406, N-(2-(4-((5-Chloro-JH-indazol-7-yl)methyl)piperazin-1-yl)-2-oxoethyl)-2-(4,4-difluorocyclohexyl)acetamide] | 460
18 | O=C(CNC(=O)C12CC3(F)CC(F)(CC(F)(C3)C1)C2)N1CCN(Cc2ccccc2OCc2ccc(Br)cc2)CC1 [Compound 1255] | 400
19 | CS(=O)(=O)c1ccc(COc2ccc(F)cc2CN2CCN(C(=O)CNC(=O)CC3CCC(F)(F)CC3)CC2)cc1 [Compound 1455] | 40
20 | COC(=O)c1ccc(COc2ccccc2CN2CCN(C(=O)CNC(=O)CC3CCC(F)(F)CC3)CC2)cc1 [Compound 1275, Methyl 4-((2-((4-((2-(4,4-difluorocyclohexyl)acetyl)glycyl)piperazin-1-yl)methyl)phenoxy)methyl)benzoate] | 50
21 | O=C(CC12CC3CC(CC(C3)C1)C2)NCC(=O)N1CCN(Cc2c(F)ccc(Cl)c2F)CC1 [Compound 1306, 2-((1R,3R,5S)-Adamantan-1-yl)-N-(2-(4-(3-chloro-2,6-difluorobenzyl)piperazin-1-yl)-2-oxoethyl)acetamide] | 1350
22 | COC(=O)c1ccc(/C=C/c2ccccc2CN2CCN(C(=O)CNC(=O)CC34CC5CC(CC(C5)C3)C4)CC2)cc1 [Compound 1253] | 1500
23 | NC(=O)c1ccc(COc2ccccc2CN2CCN(C(=O)CNC(=O)CC34CC5CC(CC(C5)C3)C4)CC2)cc1 [Compound 1260] | 700
24 | O=C(CC12CC3CC(CC(C3)C1)C2)NCC(=O)N1CCN(Cc2cc(Br)ccc2Cl)CC1 [Compound 1338, 2-((1R,3R,5S)-Adamantan-1-yl)-N-(2-(4-(5-bromo-2-chlorobenzyl)piperazin-1-yl)-2-oxoethyl)acetamide] | 82
25 | O=C(CC12CC3CC(C1)CC(n1cncn1)(C3)C2)NCC(=O)N1CCN(Cc2ccccc2OCc2ccc(Br)cc2)CC1 [Compound 1246] | < 2000
26 | [2H]C([2H])(c1cc(Cl)ccc1NCc1ccc(S(C)(=O)=O)c(F)c1)N1CCN(C(=O)CNC(=O)[C@@H]2CC23CCC(F)(F)CC3)CC1 [Compound 1561] | 8

Same assay, conditions: read-out: IC50

Row | Compound | IC50 [nM]
27 | COC(=O)c1ccc(Oc2cc(Cl)cc(CN3CCN(C(=O)CNC(=O)CC45CC6CC(CC(C6)C4)C5)CC3)c2)cc1 [Compound 1323, Methyl 4-(3-((4-((2-((1R,3R,5S)-adamantan-1-yl)acetyl)glycyl)piperazin-1-yl)methyl)-5-chlorophenoxy)benzoate] | 15

Reference: patent publication US11629139B2 (priority 2017, dated 2023)
